# How the values were obtained:
# [1] = biological target: T1, GST-tagged Tankyrase-1 (1023-1327 aa) (Homo sapiens, UniProt O95271); test: Tankyrase 1 autoparsylation HTRF enzyme assay; format: biochemical; conditions: read-out: IC50 TNKS1 enzyme assay
# T1 construct: GST-tagged Tankyrase-1 (1023-1327 aa)
# Method: (§1) Biochemical activity testing of Tankyrase 1 and 2: Autoparsylation assay
# (§2) The autoparsylation assay is run in two steps: the enzymatic reaction in which GST-tagged Tankyrase-1, resp Tankyrase-2 transferred biotinylated ADP-ribose to itself from biotinylated NAD as co-substrate and the detection reaction where a time resolved FRET between cryptate labelled anti-GST bound to the GST tag of the enzyme and Xlent® labelled-streptavidin bound the biotin-parsylation residue is analysed. The autoparsylation activity was detectable directly via the increase in HTRF signal.
# (§3) The autoparsylation assay is performed as 384-well HTRF® (Cisbio, Codolet, France) assay format in Greiner low volume nb 384-well microtiter plates and is used for high throughput screen. 250 nM GST-tagged Tankyrase-1 (1023-1327 aa), respectively about 250 nM GST-tagged Tankyrase-2 (873-1166 aa) and 5 μM bio-NAD (Biolog, Life science Inst., Bremen, Germany) as co-substrate are incubated in a total volume of 5 μl (50 mM HEPES, 4 mM Mg-chloride, 0.05% Pluronic F-68, 1.4 mM DTT, 0.5% DMSO, pH 7.7) in the absence or presence of the test compound (10 dilution concentrations) for 90 min at 30° C. The reaction is stopped by the addition of 1 μl 50 mM EDTA solution. 2 μl of the detection solution (1.6 μM SA-Xlent® (Cisbio, Codolet, France), 7.4 nM Anti-GST-K® (Eu-labelled anti-GST, Cisbio, Codolet, France) in 50 mM HEPES, 800 mM KF, 0.1% BSA, 20 mM EDTA, 0.1% CHAPS, pH 7.0) are added. After 1 h incubation at room temperature the HTRF is measured with an Envision multimode reader (Perkin Elmer LAS Germany GmbH) at excitation wavelength 340 nm (laser mode) and emission wavelengths 615 nm and 665 nm. The ratio of the emission signals is determined. The full value used is the inhibitor-free reaction. The pharmacological zero value used is XAV-939 (Tocris) in a final concentration of 5 μM. The inhibitory values (IC50) are determined using either the program Symyx Assay Explorer® or Condosseo® from GeneData.
# [2] = biological target: T2, GST-tagged Tankyrase-2 (873-1166 aa) (Homo sapiens, UniProt Q9H2K2); test: Tankyrase 2 autoparsylation HTRF enzyme assay; format: biochemical; conditions: read-out: IC50 TNKS2 enzyme assay
# T2 construct: GST-tagged Tankyrase-2 (873-1166 aa)
# Method: as §1, §2, §3
# [3] = biological target: T3, GST-tagged Tnks-1 (1023-1327 aa) (Homo sapiens, UniProt O95271); test: TNKS1 activity ELISA (autoparsylation assay); format: biochemical
# T3 construct: GST-tagged Tnks-1 (1023-1327 aa, prepared in-house); made in house
# Method: (§4) Description of the TNKS1 and TNKS2 ELISA Assay
# (§5) Biochemical Activity Testing of TNKS 1 and 2: Activity ELISA (Autoparsylation Assay)
# (§6) For analysis of autoparsylation activity of TNKS 1 and 2 an activity ELISA iss performed: In the first step GST tagged TNKS is captured on a Glutathione coated plate. Then the activity assay with biotinylated NAD is performed in the absence/presence of the compounds. During the enzymatic reaction GST tagged TNKS transfers biotinylated ADP-ribose to itself from biotinylated NAD as co-substrate. For the detection streptavidin-HRP conjugate is added that binds to the biotinylated TNKS and is thereby captured to the plates. The amount of biotinylated resp. autoparsylated TNKS is detected with a luminescence substrate for HRP. The level of the luminescence signal correlates directly with the amount of autoparsylated TNKS and therefore with activity of TNKS.
# (§7) The activity ELISA is performed in 384 well Glutathione coated microtiter plates (Express capture Glutathione coated plate, Biocat, Heidelberg, Germany). The plates are pre-equilibrated with PBS. Then the plates are incubated with 50 μl 20 ng/well GST-tagged Tnks-1 (1023-1327 aa, prepared in-house), respectively GST-tagged Tnks-2 (873-1166 aa, prepared in-house) in assay buffer (50 mM HEPES, 4 mM Mg-chloride, 0.05% Pluronic F-68, 2 mM DTT, pH 7.7) overnight at 4° C. The plates are washed 3 times with PBS-Tween-20. The wells are blocked by incubation at room temperature for 20 minutes with 50 μl blocking buffer (PBS, 0.05% Tween-20, 0.5% BSA). Afterwards the plates are washed 3 times with PBS-Tween-20. The enzymatic reaction is performed in 50 μl reaction solution (50 mM HEPES, 4 mM Mg-chloride, 0.05% Pluronic F-68, 1.4 mM DTT, 0.5% DMSO, pH 7.7) with 10 μM bio-NAD (Biolog, Life science Inst., Bremen, Germany) as co-substrate in the absence or presence of the test compound (10 dilution concentrations) for 1 hour at 30° C. The reaction is stopped by 3 times washing with PBS-Tween20. For the detection 50 μl of 20 ng/μl Streptavidin, HRP conjugate (MoBiTec, Göttingen, Germany) in PBS/0.05% Tween-20/0.01% BSA are added and the plates are incubated for 30 minutes at room temperature. After three times washing with PBS-Tween-20 50 μl of SuperSignal ELISA Femto Maximum sensitivity substrate solution (ThermoFisherScientific (Pierce), Bonn, Germany) are added. Following a 1 minute incubation at room temperature luminescence signals are measured with an Envision multimode reader (Perkin Elmer LAS Germany GmbH) at 700 nm. The full value used is the inhibitor-free reaction. The pharmacological zero value used is XAV-939 (Tocris) in a final concentration of 5 μM. The inhibitory values (IC50) are determined using either the program Symyx Assay Explorer® or Condosseo® from GeneData.
# [4] = biological target: T4, GST-tagged Tnks-2 (873-1166 aa) (Homo sapiens, UniProt Q9H2K2); test: TNKS2 activity ELISA (autoparsylation assay); format: biochemical
# T4 construct: GST-tagged Tnks-2 (873-1166 aa, prepared in-house); made in house
# Method: as §4, §5, §6, §7
# [5] = test system: Tankyrase; test: Cellular inhibition of Tankyrase: Axin2 level in DLD1 cells (Luminex); format: cell-based; conditions: 24 hours, Axin2 increase, read-out: EC50 [M] TNKS cellular assay
# Method: Measurement of Cellular Inhibition of Tankyrase
# Since Tankyrases have been described to modulate cellular level of Axin2 (Huang et al., 2009; Nature) the increase of Axin2 level is used as read-out for determination of cellular inhibition of Tankyrases in a Luminex based assay.
# Cells of the colon carcinoma cell line DLD1 are plated in 96 well plates with 1.5×10^4 cells per well. Next day, cells are treated with a serial dilution of test compound in seven steps as triplicates with a final DMSO concentration of 0.3%. After 24 hours, cells are lysed in lysis buffer (20 mM Tris/HCl pH 8.0, 150 mM NaCl, 1% NP40, 10% Glycerol) and lysates are cleared by centrifugation through a 96 well filter plate (0.65 μm). Axin2 protein is isolated from cell lysates by incubation with a monoclonal anti-Axin2 antibody (R&D Systems #MAB6078) that is bound to fluorescent carboxybeads. Then, bound Axin2 is specifically detected with a polyclonal anti-Axin2 antibody (Cell Signaling #2151) and an appropriate PE-fluorescent secondary antibody. The amount of isolated Axin2 protein is determined in a Luminex^200 machine (Luminex Corporation) according to the manufacturer's instruction by counting 100 events per well. Inhibition of Tankyrase by test compounds results in higher levels of Axin2 which directly correlates with an increase of detectable fluorescence. As controls cells are treated with solvent alone (neutral control) and with a Tankyrase reference inhibitor IWR-2 (3E-06 M) which refers as control for maximum increase of Axin2. For analysis, the obtained data are normalized against the untreated solvent control and fitted for determination of the EC50 values using the Assay Explorer software (Accelrys).
# T1 sequence (O95271 1023-1327): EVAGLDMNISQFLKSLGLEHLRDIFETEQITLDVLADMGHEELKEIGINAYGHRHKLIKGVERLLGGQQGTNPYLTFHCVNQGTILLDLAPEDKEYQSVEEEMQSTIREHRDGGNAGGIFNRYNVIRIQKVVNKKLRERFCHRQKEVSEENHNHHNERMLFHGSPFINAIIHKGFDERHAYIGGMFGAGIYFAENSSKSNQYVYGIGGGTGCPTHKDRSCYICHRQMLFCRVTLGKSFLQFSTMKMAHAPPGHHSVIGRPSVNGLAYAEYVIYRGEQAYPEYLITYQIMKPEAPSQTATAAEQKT
# T3 sequence (O95271 1023-1327): as above
# T2 sequence (Q9H2K2 873-1166): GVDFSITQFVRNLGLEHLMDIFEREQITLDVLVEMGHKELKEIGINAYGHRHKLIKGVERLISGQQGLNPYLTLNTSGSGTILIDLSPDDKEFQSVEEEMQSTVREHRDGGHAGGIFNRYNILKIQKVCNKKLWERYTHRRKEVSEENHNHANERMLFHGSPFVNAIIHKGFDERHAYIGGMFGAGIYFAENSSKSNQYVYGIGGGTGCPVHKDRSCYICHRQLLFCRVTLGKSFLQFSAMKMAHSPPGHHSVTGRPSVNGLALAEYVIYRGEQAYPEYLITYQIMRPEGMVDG
# T4 sequence (Q9H2K2 873-1166): as above
SMILES,IC50 [1] [nM],IC50 [2] [nM],IC50 [3] [nM],IC50 [4] [nM],EC50 [5] [M]
"COc1ccc(N(C)C(=O)N2CCC(C(=O)c3ccc(OC)c(F)c3)CC2)cn1 [Compound A42, 4-(3-fluoro-4-methoxy-benzoyl)-N-(6-methoxy-3-pyridyl)-N-methyl-piperidine-1-carboxamide]",< 300,300 to 3000,< 300,< 300,< 3e-07
"COc1ccc(N(C)C(=O)N2CCC(C(=O)c3ccc(C)cc3)CC2)cn1 [Compound A46, N-(6-methoxy-3-pyridyl)-N-methyl-4-(4-methylbenzoyl)piperidine-1-carboxamide]",300 to 3000,300 to 3000,< 300,< 300,3e-07 to 3e-06
"COc1ccc(N(C)C(=O)N2CCC(C(=O)c3ccc(OC)c(C)c3)CC2)cn1 [Compound A52, 4-(4-methoxy-3-methyl-benzoyl)-N-(6-methoxy-3-pyridyl)-N-methyl-piperidine-1-carboxamide]",–,–,< 300,< 300,< 3e-07
"CCn1cc(-c2ccc(C(=O)C3CCN(C(=O)N(C)c4ccc(-c5cnn(CC)c5)cc4)CC3)cc2)cn1 [Compound A57, 4-[4-(1-Ethyl-1H-pyrazol-4-yl)-benzoyl]-piperidine-1-carboxylic acid [4-(1-ethyl-1H-pyrazol-4-yl)-phenyl]-methyl-amide]",–,–,< 300,< 300,< 3e-07
"CN(C(=O)N1CCC(C(=O)c2ccccc2)CC1)c1ccc(C#N)cc1 [Compound A11, 4-benzoyl-piperidine-1-carboxylic acid (4-cyano-phenyl)-methyl-amide]",300 to 3000,300 to 3000,< 300,< 300,3e-07 to 3e-06
"COc1cccc(C(=O)C2CCN(C(=O)N(C)c3ccc(OC)nc3)CC2)c1 [Compound A47, 4-(3-methoxybenzoyl)-N-(6-methoxy-3-pyridyl)-N-methyl-piperidine-1-carboxamide]",300 to 3000,300 to 3000,< 300,< 300,3e-07 to 3e-06
"O=C(c1ccccc1)C1CCN(C(=O)N2CCCc3ccccc32)CC1 [Compound A22, (4-benzoyl-piperidin-1-yl)-(3,4-dihydro-2H-quinolin-1-yl)-methanone]",3000 to 50000,3000 to 50000,300 to 3000,300 to 3000,3e-06 to 5e-05
"COc1cccc(N(C)C(=O)N2CCC(C(=O)c3ccccc3)CC2)c1 [Compound A3, 4-benzoyl-piperidine-1-carboxylic acid (3-methoxy-phenyl)-methyl-amide]",300 to 3000,300 to 3000,< 300,< 300,3e-07 to 3e-06
"COc1ccc(N(C)C(=O)N2CCC(C(=O)c3ccccc3)CC2)cn1 [Compound A44, 4-benzoyl-N-(6-methoxy-3-pyridyl)-N-methyl-piperidine-1-carboxamide]",–,–,< 300,< 300,3e-07 to 3e-06
"COc1ccc(N(C)C(=O)N2CCC(C(=O)c3cccc(F)c3)CC2)cn1 [Compound A50, 4-(3-fluorobenzoyl)-N-(6-methoxy-3-pyridyl)-N-methyl-piperidine-1-carboxamide]",300 to 3000,300 to 3000,< 300,< 300,3e-07 to 3e-06
"COc1ccc(N(C)C(=O)N2CCC(C(=O)c3ccc(OC)c(C)c3)CC2)cc1 [Compound A23, 4-(4-methoxy-3-methyl-benzoyl)-piperidine-1-carboxylic acid (4-methoxy-phenyl)-methyl-amide]",< 300,300 to 3000,< 300,< 300,< 3e-07
"CCN(C(=O)N1CCC(C(=O)c2ccc(OC)nc2)CC1)c1ccc(OC)cc1 [Compound A43, N-ethyl-N-(4-methoxyphenyl)-4-(6-methoxypyridine-3-carbonyl)piperidine-1-carboxamide]",–,–,< 300,< 300,< 3e-07
"CCn1cc(-c2ccc(C(=O)C3CCN(C(=O)N(C)c4ccc(OC)nc4)CC3)cc2)cn1 [Compound A48, 4-[4-(1-ethylpyrazol-4-yl)benzoyl]-N-(6-methoxy-3-pyridyl)-N-methyl-piperidine-1-carboxamide]",–,–,< 300,< 300,3e-07 to 3e-06
"CN(C(=O)N1CCC(C(=O)c2ccc(-c3cnn(CCN4CCCC4)c3)cc2)CC1)c1ccc(-c2cnn(CCN3CCCC3)c2)cc1 [Compound A37, 4-{4-[1-(2-pyrrolidin-1-yl-ethyl)-1H-pyrazol-4-yl]-benzoyl}-piperidine-1-carboxylic acid methyl-{4-[1-(2-pyrrolidin-1-yl-ethyl)-1H-pyrazol-4-yl]-phenyl}-amide]",–,–,< 300,< 300,3e-07 to 3e-06
"COc1ccc(N(C)C(=O)N2CCC(C(=O)c3ccc(OC)nc3)CC2)cc1 [Compound A53, N-(4-methoxyphenyl)-4-(6-methoxypyridine-3-carbonyl)-N-methyl-piperidine-1-carboxamide]",–,–,< 300,< 300,3e-07 to 3e-06

# Reference: patent publication US9770446B2, “Piperidine urea derivatives” (MERCK PATENT GMBH, priority 2013, dated 2017)
